Bridge positions count the residues as written; N and C are the ends. Square brackets hold non-standard residues; d marks the D form. Peptide text beside a SMILES is read from it. NMeF = CN[C@@H](Cc1ccccc1)C(=O)O
Experiments:
[1] = Toxicity in naloxone-induced withdrawal symptoms in Kunming mouse assessed as effect on jumping response at 17 to 870 nmol/kg, po for every 8 hrs followed by naloxone stimulation and measured for 3 days; type: organism-based; settings: in vivo, 72 h, dose 17-870 nmol/kg, time 3 day
[2] = Half life in Kunming mouse at 868.1 nmol/kg, po measured up to 120 mins by LC-MS/MS analysis; type: ADME, organism-based; settings: in vivo

CN1C(=O)CNC(=O)[C@H](NC(=O)[C@@H](N)Cc2ccc(O)cc2)CCCCNC(=O)C[C@@H](C(=O)N2CCC[C@H]2C(=O)N[C@@H](CCC(N)=O)C(=O)N[C@@H](CCCNC(=N)N)C(=O)N[C@@H](Cc2ccccc2)C(N)=O)NC(=O)[C@@H]1Cc1ccccc1 (H-Y[dK]G[NMeF]DPQRF-NH2; lactam 2-5)
Activity [1]: Non-Toxic
half-life [2]: 3.13 h

Reference: ChEMBL document CHEMBL5034023, “Development of Multifunctional and Orally Active Cyclic Peptide Agonists of Opioid/Neuropeptide FF Receptors that Produce Potent, Long-Lasting, and Peripherally Restricted Antinociception with Diminished Side Effects” (J Med Chem, 2021)
